Measurements taken from PubChem BioAssay (NCI).
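Assay format: 96-well plates, 48-hour exposure. GI50 marks 50% less growth. Definition used: TGI = concentration required for complete inhibition of growth.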

Legend:
Test in all cases: NCI anticancer screen, dose series, 48 h; in the data active = GI50 below about 0.43 µM; inactive = the rest
CCRF-CEM leukemia = system: CCRF-CEM leukemia
RXF 393 renal = system: RXF 393 renal
NCI-H460 lung = system: NCI-H460 lung
SK-OV-3 ovarian = system: SK-OV-3 ovarian
K-562 leukemia = system: K-562 leukemia
NCI-H226 lung = system: NCI-H226 lung
A549 NSCLC = system: A549 NSCLC
UACC-62 melanoma = system: UACC-62 melanoma
MDA-MB-435 = system: MDA-MB-435
HOP-62 NSCLC = system: HOP-62 NSCLC
CAKI-1 renal = system: CAKI-1 renal
BT-549 breast = system: BT-549 breast
HL-60(TB) leukemia = system: HL-60(TB) leukemia
M14 melanoma = system: M14 melanoma
MCF7 breast = system: MCF7 breast
COLO 205 colon = system: COLO 205 colon
HCC-2998 colon = system: HCC-2998 colon
LOX IMVI melanoma = system: LOX IMVI melanoma
SNB-75 CNS = system: SNB-75 CNS
T-47D breast = system: T-47D breast
SF-539 CNS = system: SF-539 CNS
OVCAR-3 ovarian = system: OVCAR-3 ovarian
HS 578T breast = system: HS 578T breast
IGROV1 ovarian = system: IGROV1 ovarian
U251 CNS = system: U251 CNS
HCT-15 colon = system: HCT-15 colon
786-0 renal = system: 786-0 renal
RPMI-8226 leukemia = system: RPMI-8226 leukemia
TK-10 renal = system: TK-10 renal
MALME-3M melanoma = system: MALME-3M melanoma
HT29 colon = system: HT29 colon
ACHN renal = system: ACHN renal
OVCAR-8 ovarian = system: OVCAR-8 ovarian
OVCAR-4 ovarian = system: OVCAR-4 ovarian
NCI/ADR-RES ovarian = system: NCI/ADR-RES ovarian
SK-MEL-28 melanoma = system: SK-MEL-28 melanoma
MDA-MB-468 breast = system: MDA-MB-468 breast
SK-MEL-2 melanoma = system: SK-MEL-2 melanoma
EKVX NSCLC = system: EKVX NSCLC
NCI-H23 lung = system: NCI-H23 lung
PC-3 prostate = system: PC-3 prostate
SK-MEL-5 melanoma = system: SK-MEL-5 melanoma
MOLT-4 leukemia = system: MOLT-4 leukemia
SN12C renal = system: SN12C renal
SF-268 CNS = system: SF-268 CNS
NCI-H522 lung = system: NCI-H522 lung
HCT-116 colon = system: HCT-116 colon
A498 renal = system: A498 renal
HOP-92 NSCLC = system: HOP-92 NSCLC
SW-620 colon = system: SW-620 colon
KM12 colon = system: KM12 colon
UACC-257 melanoma = system: UACC-257 melanoma
SF-295 CNS = system: SF-295 CNS
SNB-19 CNS = system: SNB-19 CNS
OVCAR-5 ovarian = system: OVCAR-5 ovarian
DU-145 prostate = system: DU-145 prostate

O=C(N/N=C/c1ccc(B(O)O)o1)c1[nH]c2ccc(Br)cc2c1-c1ccccc1
67.3 µM: TGI (SK-OV-3 ovarian)
20.6 µM: TGI (SNB-75 CNS)
24.1 µM: TGI (RXF 393 renal)
73.3 µM: TGI (MOLT-4 leukemia)
inactive: GI50 (CCRF-CEM leukemia) 17.5 µM | GI50 (RXF 393 renal) 5.38 µM | GI50 (NCI-H460 lung) 29.1 µM | GI50 (SK-OV-3 ovarian) 21.8 µM | GI50 (K-562 leukemia) 5.46 µM | GI50 (NCI-H226 lung) 45.8 µM | GI50 (A549 NSCLC) 27.1 µM | GI50 (UACC-62 melanoma) 3.24 µM | GI50 (MDA-MB-435) 3.66 µM | GI50 (HOP-62 NSCLC) 11.9 µM | GI50 (CAKI-1 renal) 30.8 µM | GI50 (BT-549 breast) 12 µM | GI50 (HL-60(TB) leukemia) 13 µM | GI50 (M14 melanoma) 19 µM | GI50 (MCF7 breast) 24.7 µM | GI50 (COLO 205 colon) 19.8 µM | GI50 (HCC-2998 colon) 25.4 µM | GI50 (LOX IMVI melanoma) 18.1 µM | GI50 (SNB-75 CNS) 3.26 µM | GI50 (T-47D breast) 21.4 µM | GI50 (SF-539 CNS) 13 µM | GI50 (OVCAR-3 ovarian) 14.8 µM | GI50 (HS 578T breast) 8.91 µM | GI50 (IGROV1 ovarian) 25.7 µM | GI50 (U251 CNS) 16.5 µM | GI50 (HCT-15 colon) 22.6 µM | GI50 (786-0 renal) 17.9 µM | GI50 (RPMI-8226 leukemia) 29.5 µM | GI50 (TK-10 renal) 37.1 µM | GI50 (MALME-3M melanoma) 26.9 µM | GI50 (HT29 colon) 20.6 µM | GI50 (ACHN renal) 29.6 µM | GI50 (OVCAR-8 ovarian) 17.7 µM | GI50 (OVCAR-4 ovarian) 47 µM | GI50 (NCI/ADR-RES ovarian) 12.2 µM | GI50 (SK-MEL-28 melanoma) 10.7 µM | GI50 (MDA-MB-468 breast) 19.3 µM | GI50 (SK-MEL-2 melanoma) 13.5 µM | GI50 (EKVX NSCLC) 28.6 µM | GI50 (NCI-H23 lung) 26.5 µM | GI50 (PC-3 prostate) 12.9 µM | GI50 (SK-MEL-5 melanoma) 14.7 µM | GI50 (MOLT-4 leukemia) 20.3 µM | GI50 (SN12C renal) 24.4 µM | GI50 (SF-268 CNS) 16.1 µM | GI50 (NCI-H522 lung) 2.94 µM | GI50 (HCT-116 colon) 16.9 µM | GI50 (A498 renal) 23.3 µM | GI50 (HOP-92 NSCLC) 11.7 µM | GI50 (SW-620 colon) 35.7 µM | GI50 (KM12 colon) 19.2 µM | GI50 (UACC-257 melanoma) 19.1 µM | GI50 (SF-295 CNS) 13.1 µM | GI50 (SNB-19 CNS) 21.1 µM | GI50 (OVCAR-5 ovarian) 27.5 µM | GI50 (DU-145 prostate) 32.3 µM
89.7 µM: TGI (SNB-19 CNS)
44.4 µM: TGI (U251 CNS)
52.8 µM: TGI (HOP-92 NSCLC)
90.2 µM: TGI (HCC-2998 colon)
31.3 µM: TGI (SF-539 CNS)
93.6 µM: TGI (HS 578T breast)
57.2 µM: TGI (MDA-MB-468 breast)
> 100 µM: TGI (NCI-H460 lung) | TGI (NCI-H226 lung) | TGI (A549 NSCLC) | TGI (MDA-MB-435) | TGI (CAKI-1 renal) | TGI (M14 melanoma) | TGI (MCF7 breast) | TGI (LOX IMVI melanoma) | TGI (T-47D breast) | TGI (OVCAR-3 ovarian) | TGI (IGROV1 ovarian) | TGI (HCT-15 colon) | TGI (RPMI-8226 leukemia) | TGI (TK-10 renal) | TGI (MALME-3M melanoma) | TGI (ACHN renal) | TGI (OVCAR-4 ovarian) | TGI (SK-MEL-28 melanoma) | TGI (EKVX NSCLC) | TGI (NCI-H23 lung) | TGI (PC-3 prostate) | TGI (SN12C renal) | TGI (SF-268 CNS) | TGI (HCT-116 colon) | TGI (A498 renal) | TGI (SW-620 colon) | TGI (KM12 colon) | TGI (UACC-257 melanoma) | TGI (OVCAR-5 ovarian) | TGI (DU-145 prostate)
55.4 µM: TGI (CCRF-CEM leukemia)
45 µM: TGI (K-562 leukemia)
43.5 µM: TGI (SK-MEL-2 melanoma)
36.6 µM: TGI (HOP-62 NSCLC)
13.5 µM: TGI (NCI-H522 lung)
46.6 µM: TGI (COLO 205 colon)
43.1 µM: TGI (SF-295 CNS)
54.6 µM: TGI (786-0 renal)
56.2 µM: TGI (NCI/ADR-RES ovarian)
33.3 µM: TGI (BT-549 breast)
37.1 µM: TGI (HL-60(TB) leukemia)
41.6 µM: TGI (OVCAR-8 ovarian)
15.5 µM: TGI (UACC-62 melanoma)
50.9 µM: TGI (HT29 colon)
35.5 µM: TGI (SK-MEL-5 melanoma)
